103 compounds from PubChem BioAssay AID1996 can be followed below.

As usually defined, the solubility (kinetic) is the concentration staying in solution when a stock, usually in DMSO, is diluted into the medium.

Values after ≈ are worked out from the molar mass of the structure shown. A value given as a limit tells only on which side of the number the result lay.

For the data set the following is noted: buffer; pH 7.4; 200.0 µM.
With `CNC(=O)O/N=C(\N)Cc1csc2ccccc12`, the kinetic solubility stood at 0.0392 mg/mL (≈ 149 µM). The result for `Cc1cccc(NS(=O)(=O)c2ccc(Cl)cc2)n1` reads 0.0316 mg/mL (≈ 112 µM); that for `Cl.Nc1nc(N2CCN(c3ccccn3)CC2)nc2ccccc12`, 0.0548 mg/mL; that for `Cc1ccccc1C(=O)NC1CCSC1=O` (stereo not drawn), over 0.0353 mg/mL. `Cl.O=S(=O)(NCCN1CCOCC1)c1cccs1` registered a kinetic solubility of over 0.0469 mg/mL. For `CN(Cc1cccs1)C(=O)CSc1nc2ccccc2[nH]1`, the kinetic solubility turned out to be 0.045 mg/mL (≈ 142 µM). `CCCN1CNC(=S)N(c2ccccc2C)C1` registered a kinetic solubility of over 0.0374 mg/mL. `CCCCNC(=O)C1CC(=O)N(CCc2ccc(C)cc2)C1` (stereo not drawn) had a kinetic solubility of over 0.0454 mg/mL. As for `CCOC(=O)N1CCN(C(=S)NC(=O)c2cccc(OC)c2)CC1`, the kinetic solubility was over 0.0527 mg/mL.

The compound `COc1ccccc1NC(=O)c1c(O)c2ccccc2[nH]c1=O` displayed a kinetic solubility of 0.0012 mg/mL (≈ 3.87 µM). For `O=C(O)CC1(CC(=O)Nc2ccc(C(F)(F)F)cc2)CCCC1` the value was over 0.0494 mg/mL; for `Cc1ccc(NC(=S)N2CCN(S(C)(=O)=O)CC2)cc1C`, 0.0091 mg/mL (≈ 27.8 µM); for `O=C1NC(C(=O)O)=CC(c2ccc([N+](=O)[O-])cc2)N1` (stereo not drawn), over 0.0395 mg/mL. Compound `COc1ccc(C)cc1S(=O)(=O)NCCN1CCOCC1` registered a solubility (kinetic) of over 0.0472 mg/mL. With `COc1ccc(NC(=O)COC(=O)CC2CCCCC2)cc1`, the kinetic solubility was over 0.0458 mg/mL. For `CCN(CC)c1nc(N2CCN(C)CC2)nc2ccccc12.Cl` the value was 0.0501 mg/mL; for `COC(=O)C1(C(C[N+](=O)[O-])c2ccc(C)cc2)C(=O)NCC1c1ccco1` (stereo not drawn), over 0.0559 mg/mL. In turn, `CCS(=O)(=O)c1ccc(O)c(NC(=O)CCCC(=O)O)c1` returned a solubility (kinetic) of 0.0415 mg/mL (≈ 132 µM). The result for `COc1cccc(NC(=O)COC(=O)C2C3CC4OC(=O)C2C4C3)c1` (stereo not drawn) reads 0.0495 mg/mL (≈ 143 µM); that for `COc1ccccc1NC(=O)c1ccc(NC(=O)c2ccco2)cc1`, 0.0085 mg/mL (≈ 25.3 µM); that for `CCOc1ccc(C(=O)NC(C)CCc2ccccc2)cc1` (stereo not drawn), 0.0025 mg/mL (≈ 8.41 µM).

Turning to `CCCCn1c(=O)c(C(=O)NC(C)c2ccccc2)c(O)c2ccccc21` (stereo not drawn), the solubility (kinetic) is under 0.0004 mg/mL. The result for `CCCCNc1nc(Cl)nc(Nc2ccc(C)cc2)n1` reads 0.0017 mg/mL (≈ 5.83 µM). Regarding `Cc1ccc(C(=O)OCC(=O)NCC2CCCO2)c(C)c1` (stereo not drawn), the solubility (kinetic) was over 0.0437 mg/mL. For `COc1ccc(NC(=O)CN2CCN(CC#N)CC2)cc1` the value was over 0.0433 mg/mL; for `CCCNCC(=O)Nc1cccc(S(=O)(=O)NC2=NCCCCC2)c1.O=C(O)C(=O)O`, over 0.0685 mg/mL; for `c1ccc2c3c([nH]c2c1)CNCC3`, over 0.0258 mg/mL. Compound `COc1ccc(-c2nonc2NC(=O)c2ccco2)cc1OC` came in with a solubility (kinetic) of over 0.0473 mg/mL. With `CC(C)C(=O)Nc1ccc(-c2nc3ccccc3c(=O)o2)cc1`, the kinetic solubility was 0.0167 mg/mL (≈ 54.2 µM). The result for `CCN(CC)S(=O)(=O)c1cc(NC(=O)CCc2c(C)noc2C)ccc1C` reads over 0.059 mg/mL; that for `CN1CCN(c2nc3c(c(=O)[nH]c(=O)n3C)n2Cc2ccccc2)CC1`, 0.0527 mg/mL (≈ 149 µM); that for `COc1ccc(NC(=S)Nc2ccccn2)cc1`, 0.0028 mg/mL (≈ 10.8 µM).

Turning to `Cc1ccc[n+](CC(=O)Nc2cccc(Cl)c2)c1.[Cl-]`, the solubility (kinetic) is over 0.0446 mg/mL. Consider `CCOC(=O)N1CCN(C(=O)c2cc3cc(C)ccc3[nH]2)CC1`, for which the solubility (kinetic) was determined as 0.0416 mg/mL (≈ 132 µM). The result for `CC1(C)CC(NC(=O)Nc2ccc([N+](=O)[O-])cc2)CC(C)(C)N1` reads over 0.0481 mg/mL. For `CC(C)c1ccc(CNC(=O)CCc2ccccc2)cc1` the value was 0.0312 mg/mL (≈ 111 µM); for `CCCNC(=O)CN1C(=O)NC(CCSC)C1=O` (stereo not drawn), over 0.041 mg/mL; for `Cc1ccc(OCCNC(=O)c2cccc(C)c2)cc1`, 0.029 mg/mL (≈ 108 µM). For `O=C(Nc1cnccc1C(F)(F)F)NC1CCCCC1` the value was 0.0431 mg/mL (≈ 150 µM); for `CCCCc1ccc(NC(=O)N[C@@H](CC(C)C)C(=O)O)cc1`, over 0.046 mg/mL.

`COc1cccc(CC(=O)Nc2ccc3c(c2)CCC3)c1` displayed a solubility (kinetic) of 0.0083 mg/mL (≈ 29.5 µM). Compound `Cc1ccccc1N1C(=O)CSC1=C(C#N)C#N` yielded a solubility (kinetic) of over 0.0383 mg/mL. The result for `O=C(Nc1ccccc1Cl)Nc1cccc2cccnc12` reads under 0.0002 mg/mL. Turning to `COc1cc(OC)cc(C(=O)NCC(=O)N2CCN(S(=O)(=O)c3ccccc3F)CC2)c1`, the solubility (kinetic) is 0.0521 mg/mL (≈ 112 µM). The result for `O=C1CSC(c2ccccc2O)N1Cc1ccccc1` (stereo not drawn) reads over 0.0428 mg/mL; that for `c1ccc(-c2nnc(-c3ccccn3)c(-c3ccccn3)n2)nc1`, over 0.0468 mg/mL; that for `CC(C)(C)c1ccc(/C=C/C(=O)NCCCn2ccnc2)cc1`, 0.0461 mg/mL (≈ 148 µM).

As to `O=C(COc1ccc(Cl)cc1)Nc1ccccc1Cl`, the solubility (kinetic) was under 0.0006 mg/mL. The result for `Cc1ccc([N+](=O)[O-])cc1NC(=O)c1ccccc1` reads 0.0085 mg/mL (≈ 33.2 µM); that for `Cc1cnc(C(=O)OCC(=O)Nc2ccc(Cl)cn2)cn1`, over 0.046 mg/mL; that for `CNC(=S)Nc1ccc(N2CCCC2)c(S(=O)(=O)Nc2ccc(OC)cc2)c1`, 0.0346 mg/mL (≈ 82.3 µM). `COc1cccc(NC(=O)Nc2cccnc2)c1` returned a kinetic solubility of over 0.0365 mg/mL.

As for `Cc1ccc(S(=O)(=O)N2CCCCC2)c2nsnc12`, the solubility (kinetic) worked out at 0.0319 mg/mL (≈ 107 µM).

The compound `COc1cc(=O)[nH]c(SC(C)C(=O)Nc2cc(C)on2)n1` (stereo not drawn) displayed a solubility (kinetic) of over 0.0465 mg/mL. The result for `CN(C)/C=N/C(=S)Nc1ccccc1` reads over 0.0311 mg/mL. Turning to `O=C(CCS(=O)(=O)c1ccc(Cl)cc1)NC1CCCC1`, the kinetic solubility was over 0.0474 mg/mL. Compound `CCOC(=O)N1CCN(c2nc3ccccn3c(=O)c2C=O)CC1` gave a solubility (kinetic) of over 0.0496 mg/mL. The result for `CCOc1ccc(NC(=O)N(C2CCCC2)C2CCN(C(C)=O)CC2)cc1` reads over 0.056 mg/mL; that for `CCCCC(CCC(=O)Nc1cccc([N+](=O)[O-])c1)C(=O)O` (stereo not drawn), 0.0437 mg/mL (≈ 142 µM).

Turning to `O=C(CCCOc1ccccc1)NC(=S)Nc1ccccc1`, the kinetic solubility worked out at 0.0018 mg/mL (≈ 5.73 µM). For `COc1ccccc1CNC(=O)c1sccc1-c1ccccc1` the value was 0.0144 mg/mL (≈ 44.5 µM).

Compound `Cc1[nH]c(=S)c(C#N)c(-c2ccccc2)c1C(=O)Nc1ccccc1` registered a solubility (kinetic) of over 0.0518 mg/mL.

Compound `CCOC(=O)C1CCN(C(C)C(=O)c2c[nH]c3ccccc23)CC1` (stereo not drawn) registered a kinetic solubility of over 0.0493 mg/mL. For `Cc1cccc(C)c1N1C(=O)[C@@H]2C(c3ccccc3Cl)=NO[C@@H]2C1=O` the value was 0.0396 mg/mL (≈ 112 µM); for `CN1C(C(=O)Nc2ncccn2)=C(O)c2ccccc2S1(=O)=O`, over 0.0498 mg/mL. `CCCCOc1ccc(C2=CSC3=NCCN23)cc1[N+](=O)[O-]`: the solubility (kinetic) is over 0.0479 mg/mL. For `Cc1ccc(NC(=S)NCCc2ccc(Cl)cc2)c(C)c1` the value was under 0.0003 mg/mL. For `COc1ccc(NC(=O)CN(C)C(=O)CCC2CCCC2)cc1` the value was 0.0455 mg/mL (≈ 143 µM); for `O=C(COC(=O)c1ccc(Cl)cc1)NC(=O)NC1CCCC1`, 0.0057 mg/mL (≈ 17.6 µM). In turn, `O=C(c1c[nH]c2ccccc2c1=O)N1CCCCCC1` gave a solubility (kinetic) of over 0.0405 mg/mL. Consider `CCOc1ccc(C(=O)NCC(=O)NCCOc2ccc(C)cc2)cc1`, for which the solubility (kinetic) came to 0.0104 mg/mL (≈ 29.2 µM). The compound `CN(C)C=Nc1ccc2nc3c(cc2c1)[nH]c1ccccc13` came in with a kinetic solubility of over 0.0433 mg/mL.

As to `CC1CCC(NC(=O)CCNC(=O)c2ccccc2)CC1` (stereo not drawn), the kinetic solubility was over 0.0433 mg/mL. For `COc1ccc(OC)c(NC(=O)c2ccc3c(c2)OCO3)c1`, the kinetic solubility stood at 0.0047 mg/mL (≈ 15.6 µM). For `CCN(C(=O)COC(=O)c1ccc(Cl)c(S(=O)(=O)N2CCCCC2)c1)C1CCS(=O)(=O)C1` (stereo not drawn) the value was 0.0566 mg/mL (≈ 112 µM). On to `NS(=O)(=O)c1ccc(CCNC(=O)CN2C(=O)NC(c3ccccc3)(c3ccccc3)C2=O)cc1`, for which the solubility (kinetic) is over 0.0739 mg/mL. For `CC(O)C(NC=C1C(=O)OC(C)(C)OC1=O)C(=O)O` (stereo not drawn) the value was 0.0394 mg/mL (≈ 144 µM); for `COc1cc(C(=O)OCC#N)ccc1OCc1c(C)noc1C`, 0.004 mg/mL (≈ 12.6 µM). The compound `CNS(=O)(=O)c1ccc2c3c(cccc13)C(=O)N2` yielded a solubility (kinetic) of 0.0277 mg/mL (≈ 106 µM). Consider `O=C(NCCC1=CCCCC1)C1CCN(S(=O)(=O)N2CCCC2)CC1`, for which the solubility (kinetic) was 0.0507 mg/mL (≈ 137 µM). In turn, `CSc1ncccc1C(=O)OCC(=O)NC1CCCC1` came in with a kinetic solubility of over 0.0442 mg/mL.

`N#CC1(NC(=O)COC(=O)C2=COCCO2)CCCCC1`: the kinetic solubility was over 0.0441 mg/mL. The result for `COc1ccc(OC)c(N/C=C/C(=O)c2ccc(OC)c(OC)c2)c1` reads under 0.0007 mg/mL. The result for `CCN(Cc1ccncc1)C(=O)CSc1ccc2ccccc2c1` reads 0.0326 mg/mL (≈ 96.9 µM). `O=C1OCCC1Sc1nnc(-c2ccc3c(c2)OCO3)o1` (stereo not drawn) came in with a solubility (kinetic) of over 0.0459 mg/mL.

The compound `C/C(N)=C(/C#N)C(=O)COC(=O)c1ccccc1Cc1ccccc1` yielded a kinetic solubility of 0.0223 mg/mL (≈ 66.7 µM). For `Cc1ccc(Cl)cc1NC(=O)CCC(=O)O` the value was over 0.0363 mg/mL; for `Cc1ccc(C)c(NC(=O)CCN2CCCC(C)C2)c1` (stereo not drawn), 0.0385 mg/mL (≈ 140 µM). Consider `O=c1[nH]c(=O)n(C2OC(CO)C(O)C2O)cc1Br` (stereo not drawn), for which the solubility (kinetic) was over 0.0485 mg/mL. For `Cc1ccc(S(=O)(=O)N(C)CC(=O)NCC(=O)Nc2ccc(F)c(F)c2F)cc1` the value was 0.0064 mg/mL (≈ 14.9 µM); for `COc1ccc2cc(C#N)c(SCC(=O)Nc3nonc3C)nc2c1`, 0.0034 mg/mL (≈ 9.57 µM).

The compound `O=C(O)CN1C(=O)/C(=C/c2cccc(Cl)c2)Oc2ccccc21` registered a kinetic solubility of 0.0308 mg/mL (≈ 93.4 µM). For `O=C(CCc1nc2ccccc2s1)Nc1cccnc1` the value was 0.0326 mg/mL (≈ 115 µM); for `O=C(Nc1cc(Cl)ccc1F)C1=COCCO1`, over 0.0386 mg/mL. `Cc1ccc(NC(=S)NC(=O)C2CCC2)cc1C`: the solubility (kinetic) stood at 0.0033 mg/mL (≈ 12.6 µM). `CN(c1ccc([N+](=O)[O-])cc1C(N)=O)C1CCCCC1` came in with a solubility (kinetic) of 0.0383 mg/mL (≈ 138 µM). In the case of `CC(=NCCCO)c1c(O)[nH]c(=O)[nH]c1=O`, the solubility (kinetic) is over 0.0341 mg/mL. The result for `COc1ccc(CC(=O)Nc2ccc3c(c2)C(=O)N(CCC(=O)O)C3=O)cc1` reads 0.0532 mg/mL (≈ 139 µM); that for `NS(=O)(=O)c1ccc(NC(=O)CN2C(=O)CCC2=O)cc1`, over 0.0467 mg/mL; that for `Cc1cc(O)cc(=O)n1Cc1ccccc1`, over 0.0323 mg/mL. The result for `CCc1ccc(NC(=O)Cn2cnc3c(=O)n(C)c(=O)n(C)c32)cc1` reads 0.0186 mg/mL (≈ 54.5 µM); that for `COc1cc(Cl)c(S(=O)(=O)N2CCCC2)cc1Cl`, 0.0421 mg/mL (≈ 136 µM). The result for `COc1ccc2ccccc2c1C1NC(=O)NC(C)=C1[N+](=O)[O-]` (stereo not drawn) reads 0.0021 mg/mL (≈ 6.7 µM).
